This is an account of results in US8101754B2, “Triazole compounds suitable for treating disorders that respond to modulation of the dopamine D3 receptor” (Abbott GmbH & Co. KG, priority 2004, dated 2012).

Where a name gives a salt, the structure may show the parent alone. Read-outs that look alike come from different tables or passages of the source.

Test [1] deals with T1, human dopamine D3 receptors (Homo sapiens, UniProt P35462).
T1 construct: expressed in transfected cells; membranes)
Briefly: Dopamine D3 receptor binding ([125I]-iodosulpride displacement). As for the experimental part:
The substance to be tested was either dissolved in methanol/Chremophor® (BASF-AG) or in dimethyl sulfoxide and then diluted with water to the desired concentration.
Each assay mixture was run in triplicate.
The incubation buffer contained 50 mM tris, 120 mM NaCl, 5 mM KCl, 2 mM CaCl2, 2 mM MgCl2 and 0.1% bovine serum albumin, 10 μM quinolone and 0.1% ascorbic acid (prepared fresh daily). The buffer was adjusted to pH 7.4 with HCl.
Measurement and Analysis:
After having been incubated at 25° C. for 60 minutes, the assay mixtures were filtered through a Wathman GF/B glass fiber filter under vacuum using a cell collecting device. The filters were transferred to scintillation viols using a filter transfer system. After 4 ml of Ultima Gold® (Packard) have been added, the samples were shaken for one hour and the radioactivity was then counted in a Beta-Counter (Packard, Tricarb 2000 or 2200CA). The cpm values were converted into dpm using a standard quench series and the program belonging to the instrument.
The inhibition curves were analyzed by means of iterative nonlinear regression analysis using the Statistical Analysis System (SAS) which is similar to the “LIGAND” program described by Munson and Rodbard.

Test [2] concerns the target T2, human dopamine D2L receptors (long isoform) (Homo sapiens, UniProt P14416).
T2 construct: expressed in transfected cells; membranes)
Briefly: Dopamine D2L receptor binding ([125I] iodospiperone), basis of selectivity Ki(D2)/Ki(D3). To be noted: D2L vs D3. As for the experimental part: The substance to be tested was either dissolved in methanol/Chremophor® (BASF-AG) or in dimethyl sulfoxide and then diluted with water to the desired concentration. […] Each assay mixture was run in triplicate. The incubation buffer contained 50 mM tris, 120 mM NaCl, 5 mM KCl, 2 mM CaCl2, 2 mM MgCl2 and 0.1% bovine serum albumin. The buffer was adjusted to pH 7.4 with HCl. Measurement and Analysis: After having been incubated at 25° C. for 60 minutes, the assay mixtures were filtered through a Wathman GF/B glass fiber filter under vacuum using a cell collecting device. The filters were transferred to scintillation viols using a filter transfer system. After 4 ml of Ultima Gold® (Packard) have been added, the samples were shaken for one hour and the radioactivity was then counted in a Beta-Counter (Packard, Tricarb 2000 or 2200CA). The cpm values were converted into dpm using a standard quench series and the program belonging to the instrument. The inhibition curves were analyzed by means of iterative nonlinear regression analysis using the Statistical Analysis System (SAS) which is similar to the “LIGAND” program described by Munson and Rodbard.

Where [3] appears, read: Table 5, membranes of HEK-293 cells, read-out: Ki D3.
The mark [4] stands for this setting: Table 6, membranes of HEK-293 cells, read-out: ki D3.
The mark [5] stands for this setting: compounds II, read-out: Ki D3 values.

T2 sequence (P14416 whole entry, canonical isoform): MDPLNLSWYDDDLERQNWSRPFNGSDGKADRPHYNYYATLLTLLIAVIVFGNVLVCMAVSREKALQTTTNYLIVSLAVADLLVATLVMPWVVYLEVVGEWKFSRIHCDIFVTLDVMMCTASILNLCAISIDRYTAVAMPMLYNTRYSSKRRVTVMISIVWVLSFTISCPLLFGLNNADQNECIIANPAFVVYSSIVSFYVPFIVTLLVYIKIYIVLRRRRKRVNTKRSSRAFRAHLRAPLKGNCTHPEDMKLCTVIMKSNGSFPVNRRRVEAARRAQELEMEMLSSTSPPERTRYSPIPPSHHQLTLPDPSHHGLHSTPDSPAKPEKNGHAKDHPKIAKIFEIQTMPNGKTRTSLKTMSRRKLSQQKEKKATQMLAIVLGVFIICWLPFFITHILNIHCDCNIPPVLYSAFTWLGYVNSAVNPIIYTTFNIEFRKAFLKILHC
T1 sequence (P35462 whole entry): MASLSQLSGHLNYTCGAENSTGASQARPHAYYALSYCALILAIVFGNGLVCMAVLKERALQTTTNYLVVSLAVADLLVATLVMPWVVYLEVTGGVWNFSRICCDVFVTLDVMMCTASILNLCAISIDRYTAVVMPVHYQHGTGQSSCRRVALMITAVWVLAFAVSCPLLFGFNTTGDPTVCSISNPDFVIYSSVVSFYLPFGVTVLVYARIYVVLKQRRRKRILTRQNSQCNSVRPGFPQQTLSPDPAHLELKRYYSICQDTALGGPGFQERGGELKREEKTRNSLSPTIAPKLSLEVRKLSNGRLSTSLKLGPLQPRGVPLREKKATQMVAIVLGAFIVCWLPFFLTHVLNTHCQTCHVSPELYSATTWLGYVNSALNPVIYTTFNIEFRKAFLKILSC

As for `Cn1cnnc1S(=O)(=O)CCCN1CCN(c2cc(C3CCC3)nc(C(C)(C)C)n2)CC1` [Example 2, 2-tert-Butyl-4-cyclobutyl-6-{4-[3-(4-methyl-4H-[1,2,4]triazole-3-sulfonyl)-propyl]-piperazin-1-yl}-pyrimidine], in test [1] (setting [3]), the Ki is 52 nM. In test [2] (Table 5), the “Selectivity [Ki(D2)/Ki(D3)]” value came to 14.
In the same order, the values of `Cn1cnnc1[S+]([O-])CCCN1CCN(c2cc(C3CCC3)nc(C(C)(C)C)n2)CC1` (stereo not drawn) [Example 3, 2-tert-Butyl-4-cyclobutyl-6-{4-[3-(4-methyl-4H-[1,2,4]triazole-3-sulfinyl)-propyl]-piperazin-1-yl}-pyrimidine] are 12 nM and 44.
In the same order, the values of `CCCc1cc(N2CCN(CCC[S+]([O-])c3nnc(CC)n3C)CC2)nc(C(C)(C)C)n1.Cl` (stereo not drawn) [Example 5, 2-tert-Butyl-4-{4-[3-(5-ethyl-4-methyl-4H-[1,2,4]triazole-3-sulfinyl)-propyl]-piperazin-1-yl}-6-propyl-pyrimidine hydrochloride] are 38 nM and 37.
In the same order, the values of `Cc1nnc([S+]([O-])CCCN2CCN(c3cc(C4(C)CC4)nc(C(C)(C)C)n3)CC2)n1C` (stereo not drawn) [Example 6, 2-tert-Butyl-4-{4-[3-(4,5-dimethyl-4H-[1,2,4]triazole-3-sulfinyl)-propyl]-piperazin-1-yl}-6-(1-methyl-cyclopropyl)-pyrimidine] are 28.7 nM and 20.
For the compound `CCCc1cc(N2CCN(CCC[S+]([O-])c3nnc(C)n3C)CC2)nc(C(C)(C)C)n1.Cl` (stereo not drawn) [Example 8, 2-tert-Butyl-4-{4-[3-(4,5-dimethyl-4H-[1,2,4]triazole-3-sulfinyl)-propyl]-piperazin-1-yl}-6-propyl-pyrimidine hydrochloride], in test [1] (setting [3]), the Ki came out at 56 nM. Besides, the “Selectivity [Ki(D2)/Ki(D3)]” value in test [2] (Table 5) was 33.
The corresponding values for `CCCc1cc(N2CCN(CCCS(=O)(=O)c3nnc(C)n3C)CC2)nc(C(C)(C)C)n1` [Example 9, 2-Di-tert-butyl-6-{4-[3-(4,5-dimethyl-4H-[1,2,4]triazole-3-sulfonyl)-propyl]-piperazin-1-yl}-6-propyl-pyrimidine] are 18.3 nM and 45.
The corresponding values for `Cc1nnc(S(=O)(=O)CCCN2CCN(c3cc(C4(C)CC4)nc(C(C)(C)C)n3)CC2)n1C` [Example 10, 2-tert-Butyl-4-{4-[3-(4,5-dimethyl-4H-[1,2,4]triazole-3-sulfonyl)-propyl]-piperazin-1-yl}-6-(1-methyl-cyclopropyl)-pyrimidine] are 7.8 nM and 37.
The corresponding values for `CCCc1cc(N2CCN(CCCS(=O)(=O)c3nnc(CC)n3C)CC2)nc(C(C)(C)C)n1` [Example 12, 2-tert-Butyl-4-{4-[3-(5-ethyl-4-methyl-4H-[1,2,4]triazole-3-sulfonyl)-propyl]-piperazin-1-yl}-6-propyl-pyrimidine] are 12.8 nM and 55.
With `Cn1c(-c2ccc(F)cc2)nnc1[S+]([O-])CCCN1CCN(c2cc(C(F)(F)F)nc(C(C)(C)C)n2)CC1` (stereo not drawn) [Example 15, 2-tert-Butyl-4-(4-{3-[5-(4-fluoro-phenyl)-4-methyl-4H[1,2,4]triazole-3-sulfinyl]-propyl}-piperazin-1-yl)-6-trifluoromethyl-pyrimidine], in test [1] (setting [3]), the Ki was determined as 12.6 nM. Moreover, in test [2] (Table 5), the “Selectivity [Ki(D2)/Ki(D3)]” value stood at 100.
The corresponding values for `Cl.Cn1c(-c2ccc(F)cc2)nnc1S(=O)(=O)CCCN1CCN(c2cc(C(F)(F)F)nc(C(C)(C)C)n2)CC1` [Example 16, 2-tert-Butyl-4-(4-{3-[5-(4-fluoro-phenyl)-4-methyl-4H-[1,2,4]triazole-3-sulfonyl]-propyl}-piperazin-1-yl)-6-trifluoromethyl-pyrimidine hydrochloride] are 17.7 nM and 56.
As to `Cn1cnnc1S(=O)(=O)CCCN1CCN(c2cc(C(C)(C)C)nc(C(C)(C)C)n2)CC1` [Example 17, 2,4-Di-tert-butyl-6-{4-[3-(4-methyl-4H-[1,2,4]triazole-3-sulfonyl)-propyl]-piperazin-1-yl}-pyrimidine], the Ki in test [1] (setting [4]) stood at 5.95 nM. In addition, in test [2] (Table 6), the “Selectivity [Ki(D2)/Ki(D3)]” value was found to be 53.
Consider `Cn1cnnc1[S+]([O-])CCCN1CCN(c2cc(C(C)(C)C)nc(C(C)(C)C)n2)CC1` (stereo not drawn) [Example 18, 2,4-Di-tert-butyl-6-{4-[3-(4-methyl-4H-[1,2,4]triazole-3-sulfinyl)-propyl]-piperazin-1-yl}-pyrimidine], for which the Ki in test [1] (setting [4]) was found to be 25 nM. Further, the “Selectivity [Ki(D2)/Ki(D3)]” value in test [2] (Table 6) was determined as 17.
In the same order, the values of `Cl.Cn1cnc(S(=O)(=O)CCCN2CCN(c3cc(C(F)(F)F)nc(C(C)(C)C)n3)CC2)n1` [Example 19, 2-tert-Butyl-4-{4-[3-(1-methyl-1H-[1,2,4]triazole-3-sulfonyl)-propyl]-piperazin-1-yl}-6-trifluoromethyl-pyrimidine hydrochloride] are 32 nM and 17.
With `Cl.Cn1ncnc1S(=O)(=O)CCCN1CCN(c2cc(C(C)(C)C)nc(C(C)(C)C)n2)CC1` [Example 20, 2,4-Di-tert-butyl-6-{4-[3-(2-methyl-2H-[1,2,4]triazole-3-sulfonyl)-propyl]-piperazin-1-yl}-pyrimidine hydrochloride], the Ki in test [1] (setting [4]) amounted to 26.2 nM. Also, in test [2] (Table 6), the “Selectivity [Ki(D2)/Ki(D3)]” value stood at 8.
The corresponding values for `Cl.Cn1cnc([S+]([O-])CCCN2CCN(c3cc(C(F)(F)F)nc(C(C)(C)C)n3)CC2)n1` (stereo not drawn) [Example 21, 2-tert-Butyl-4-{4-[3-(1-methyl-1H-[1,2,4]triazole-3-sulfinyl)-propyl]-piperazin-1-yl}-6-trifluoromethyl-pyrimidine hydrochloride] are 16.6 nM and 18.
In the same order, the values of `CC(C)(C)c1cc(N2CCN(CCCS(=O)(=O)c3nc[nH]n3)CC2)nc(C(C)(C)C)n1` [Example 22, 2,4-Di-tert-butyl-6-{4-[3-(1H-[1,2,4]triazole-3-sulfonyl)-propyl]-piperazin-1-yl}-pyrimidine] are 47.4 nM and 19.
On to `Cn1c(SCCCN2CCN(c3cc(C(F)(F)F)nc(C(C)(C)C)n3)CC2)nnc1C1CCCC1` [c.3, 2-tert-Butyl-4-{4-[3-(4-methyl-5-cyclopentyl-4H-[1,2,4]triazol-3-ylsulfanyl)-propyl]-piperazin-1-yl}-6-trifluoromethyl-pyrimidine trifluoroacetate], for which the Ki in test [1] (setting [5]) was below 5 nM.
The same measure, in the same setting: the result for `Cn1c(SCCCN2CCN(c3cc(C(F)F)nc(C(C)(C)C)n3)CC2)nnc1C(F)(F)F` [c.6, 2-tert-Butyl-4-{4-[3-(4-methyl-5-trifluoromethyl-4H-[1,2,4]triazol-3-ylsulfanyl)-propyl]-piperazin-1-yl}-6-difluoromethyl-pyrimidine hydrochloride] reads below 5 nM.
Take `Cn1c(SCCCN2CCN(c3cc(C(F)F)nc(C(C)(C)C)n3)CC2)nnc1C1CCC1` [c.20, 2-tert-Butyl-4-{4-[3-(4-methyl-5-cyclobutyl-4H-[1,2,4]triazol-3-ylsulfanyl)-propyl]-piperazin-1-yl}-6-difluoromethyl-pyrimidine hydrochloride]: the Ki in test [1] (setting [5]) is below 5 nM.
Same read-out and setting: then `Cn1c(SCCCN2CCN(c3cc(C(F)F)nc(C(C)(C)C)n3)CC2)nnc1C1CC1` [c.21, 2-tert-Butyl-4-{4-[3-(4-methyl-5-cyclopropyl-4H-[1,2,4]triazol-3-ylsulfanyl)-propyl]-piperazin-1-yl}-6-difluoromethyl-pyrimidine hydrochloride], with below 5 nM.
The same measure, in the same setting: then `Cn1c(SCCCN2CCN(c3cc(C(F)(F)F)nc(C(C)(C)C)n3)CC2)nnc1C(C)(C)C` [c.27, 2-tert-Butyl-4-{4-[3-(4-methyl-5-tert-butyl-4H-[1,2,4]triazol-3-ylsulfanyl)-propyl]-piperazin-1-yl}-6-trifluoromethyl-pyrimidine], with below 5 nM; and `CCc1cc(N2CCN(CCCSc3nnc(C(F)(F)F)n3C)CC2)nc(C(C)(C)C)n1` [c.28, 2-tert-Butyl-4-{4-[3-(4-methyl-5-trifluoromethyl-4H-[1,2,4]triazol-3-ylsulfanyl)-propyl]-piperazin-1-yl}-6-ethyl-pyrimidine hydrochloride], with below 5 nM.
The same measure, in the same setting: the result for `CCc1nnc(SCCCN2CCN(c3cc(C(F)F)nc(C(C)(C)C)n3)CC2)n1C` [c.29, 2-tert-Butyl-4-{4-[3-(4-methyl-5-ethyl-4H-[1,2,4]triazol-3-ylsulfanyl)-propyl]-piperazin-1-yl}-6-difluoromethyl-pyrimidine hydrochloride] reads below 5 nM.
